Data reported in a melting point compilation (Tetko et al.; mined from patent text by program, amines drawn as free bases though some values may be those of a salt).

| SMILES | melting point [°C] |
| --- | --- |
| Cc1nc2c(C(=O)NC(C)(C(N)=O)C(C)C)cc(C(=O)O)cc2n1C (stereo not given) | 246 to 248 |
| CC(C(=O)O)c1ccc(C(=O)c2cc3ccsc3s2)cc1 (stereo not given) | 150 |
| O=C1c2c(Cl)cccc2-n2cnc(-c3nc(C4CC4)no3)c2[C@@H]2CCCN12 | 213 to 214 |
| CSc1ccc(C=CC(=O)c2ccc(O)cc2)cc1 | 171 |
| N#CC=C1CCN(c2ccc(N3C[C@@H](Cn4cc(CCC(=O)O)nn4)OC3=O)cc2)CC1 | 120 to 122 |
| Cc1cc(-c2nnc3c4ccccc4c(OCc4ncnn4C)nn23)no1 | 256 to 258 |
| CSCC[C@H](NC(=O)OC(C)(C)C)C(=O)NCC(=O)Oc1c(Cl)c(Cl)c(Cl)c(Cl)c1Cl | 169 to 171 |
| CN1CCC(c2c(O)cc(O)c3c(=O)cc(Oc4ccccc4)oc23)C(O)C1 (stereo not given) | 112 |
| COC1=Cc2cc(Cl)ccc2C(O)(C2CCN(C)CC2)c2ccsc21 (stereo not given) | 223 to 227 |
| CCOP(=O)(Cc1cccc(NC(=O)C2=Cc3cc(C4CCCCC4)ccc3CC2)c1)OCC | 54 to 56 |
| N#Cc1c(OC(F)(F)Br)ncnc1N1CCc2ccccc2CC1 | 95 to 100 |
| CCOC(=O)Cc1csc(NS(=O)(=O)c2ccccc2)n1 | 129 to 130 |
| CCOC(=O)c1cc(O)c(C(=O)c2ccc(C)cc2)c([N+](=O)[O-])c1 | 145 to 147 |
| ClCOc1ccc(-c2ccccc2)cc1 | 67 to 70 |
| Oc1ccc(-c2c3ccccc3c(Br)c3sc4ccccc4c23)cc1 | 211 to 213 |
| COc1cc(C)nc(N(C)C#N)n1 | 123 |
| CC(C)NCC(O)COc1ccc(OCCOCC2CCC2)cc1 (stereo not given) | 56 |
| CCOC(=O)OCn1c(SCc2nccc3ccsc23)nc2ccccc21 | 90 to 92 |
| CC(C)c1c(CCl)c(-c2ccc(F)cc2)nn1-c1ccccc1 | 124 to 128 |
| CC(=O)NCCc1coc2ccc3c(c12)CCCO3 | 162 |
| C=Cc1ccc2sc(S(N)(=O)=O)cc2c1 | 168 to 170 |
| c1ccc(CN2CC3CC2CN3C2=Nc3ccccc3Oc3ccccc32)cc1 (stereo not given) | 70 to 72 |
| CCn1c(=O)cc(C)c2ccc(OCCCN3CCC(NC(=O)c4ccccc4)CC3)cc21 | 164 to 165 |
| COC(=O)c1ccccc1-c1nc(COc2ccc(CO)cc2OC)c(C)o1 | 100 to 101 |
| CCCCCCC(c1nccn1C)n1cnc2cc(-c3ccccc3-c3nn[nH]n3)ccc21 (stereo not given) | 88 to 93 |
| Cc1nc2sc(Br)cc2c(=O)n1-c1ccccc1Cl | 164 to 166 |
| CCCn1c2c(c3c4c(-c5ccccc5)csc4ccc31)CN(C)CC2 | 156 |

| SMILES | melting point [°C] |
| --- | --- |
| OC1(c2ccc(F)cc2)CCC2CNCCC2C1 (stereo not given) | 174 to 175 |
| CNC(=O)C(=NO)c1ccccc1CO | 128 to 131 |
| c1cn(CC2CCCCC2)cn1 | 25 to 30 |
| N#CN1CCC(=C2c3ccccc3Oc3ccc(Cl)cc32)CC1 | 148 to 150 |
| CC(C)(Oc1c(Br)cc(-c2c3ccccc3c(Br)c3sc4ccccc4c23)cc1Br)C(=O)O | 197 to 199 |
| NS(=O)(=O)c1cc2cc[nH]c(=O)c2o1 | 290 to 291 |
| COc1cc2c(cc1OC)-c1cc3ccccc3nc1CC2 | 55 to 56 |
| Cc1ccc2cccc(OCc3cccc(N(C)C(=O)CN4C(=O)c5ccccc5C4=O)c3C)c2n1 | 158 to 161 |
| CCOc1cc2c(C[C@H](C)N)c3n(c2cc1F)CCC3 | 107 |
| Cc1cccc(-c2c(CC(=O)Nc3ccc(F)cc3C(F)(F)F)c(=O)oc3cc4c(cc23)CCC4O)c1 (stereo not given) | 225 to 227 |
| O=C1c2ccccc2CN1C1CCN(c2ccc(C(OCc3ccncc3)c3ccccc3)cc2)CC1 (stereo not given) | 77 to 81 |
| CCOC(=O)C1C(c2ccc([N+](=O)[O-])cc2)CC(=O)N1C (stereo not given) | 142 to 143 |
| O=c1[nH]c(=O)n([C@@H]2O[C@H](CO)[C@@H](O)[C@H]2O)cc1/C(I)=C\I | 107 to 109 |
| COc1ccc(-c2nc(-c3cccn3CC(=O)OCCC(C)C)sc2-c2ccc(OC)cc2)cc1 | 98.5 to 102 |
| Cn1cc(C=O)c2c3sc4ccccc4c3ccc21 | 224 |
| CCOC(=O)C(F)(F)C(=O)[C@H](Cc1ccccc1)NC(=O)Cn1c(-c2cccc(C)c2)ncc(NC(=O)OCc2ccccc2)c1=O | 138 to 140 |
| CCCCNC(=O)C1CC(C)(C)NC(C)(C)C1=NO (stereo not given) | 58 to 60 |
| Cc1ccc(C)c2cc3ccccc3cc12 | 70 to 72 |
| CCCc1c(OCCCOC2CC(CC(=O)O)Oc3ccccc32)ccc(C(C)=O)c1O (stereo not given) | 102 to 105 |
| CC(C)(O)CC(=O)c1cc(C(C)(C)C)c(O)c(C(C)(C)C)c1 | 113 to 114 |
| CC(=C1SCCCS1)c1cccc(N)c1 | 99 to 100 |
| Cc1c[nH]c(-c2nc([C@H]3CCCN(C(=O)c4ccc(F)cc4)C3)no2)c1 | 183 |
| O=CC[C@@H](O)[C@H](O)[C@H](O)CO | 146 to 149 |
| CCn1ncc2c(NCC3CCCCC3)c3cc(O)ccc3nc21 | 223 to 224 |
| CNCC(O)c1cccc(Cl)c1 (stereo not given) | 95.5 to 97 |
| NC(=O)C(O)c1c(Cl)cccc1Cl (stereo not given) | 155 to 158 |
| COc1ccc(N2CCN(C3CCN(Cc4ccccc4)CC3)C2=O)cc1 | 144 to 147 |

| SMILES | melting point [°C] |
| --- | --- |
| Nc1noc2cc3c(cc12)C1(CO3)C(=O)N(CC2CCCO2)c2ccccc21 (stereo not given) | 116 to 119 |
| O=C(CCNC(=O)OCc1ccccc1)NC1OC(C(=O)O)CC1O (stereo not given) | 195 to 198 |
| Nc1c(C(=O)CCC(=O)O)cccc1C(=O)c1ccc(Cl)cc1 | 172 to 177 |
| Nc1nnc(-c2ccc(Cl)cc2)s1 | 221 |
| COC(=O)[C@H](Cc1c[nH]c2ccccc12)NC(=O)CCC(=O)[C@H](Cc1ccccc1)NC(=O)OC(C)(C)C | 54 to 57 |
| CC(=O)c1cc2cc(C(C)(C)C)ccc2o1 | 99 to 101 |
| COC(=O)Cn1c(-c2ccc(Cl)cc2)nc2cccnc21 | 198 to 200 |
| C=CCCCCCCCCC(=O)OC1CCC2C3CCC4=CC(=O)CCC4C3CCC12CC (stereo not given) | 87 to 88 |
| Nc1nc2ccc(OC(F)(F)F)c([N+](=O)[O-])c2s1 | 180 |
| Oc1cc(Br)c2oc(-c3ccc(O)c(C(F)(F)F)c3)nc2c1 | 183 to 185 |
| FC(F)(Br)C(F)(F)Oc1ccc(C2(c3ccc(OC(F)(F)C(F)(F)Br)cc3)c3ccccc3-c3ccccc32)cc1 | 157 to 158 |
| Nc1nc2cc3[nH]c(-c4ccncc4)nc3cc2[nH]1 | > 320 |
| O=[N+]([O-])c1ccc(O)cc1SCCO | 161 |
| CC(=O)Nc1ccccc1CS(=O)c1nccn1-c1ccccn1 (stereo not given) | 172 to 173 |
| CCOC(=O)c1c[nH]nc1-c1cccs1 | 123 to 124 |
| CCOC(=O)c1c(O)c2cc(C)ccc2n(Cc2ccc(F)cc2)c1=O | 130 |
| Cc1sc(CCc2ccc(C=CC=C3OC(=O)NC3=O)cc2)nc1-c1ccccc1 | 161 to 162 |
| O=[N+]([O-])c1c(Cl)cccc1-c1nc2ccccc2[nH]1 | > 260 |
| C=CCc1cc(C(=O)OCC)ccc1NC(C)=O | 127 to 128 |
| C1=C(CCC2=Cc3ccccc32)c2ccccc21 | 86 to 87 |
| COc1cccc2c1C(CC(C)=O)NC2=O (stereo not given) | 176 to 178 |
| Cc1ccc2c(c1)c(=O)oc(=O)n2C | 153 |
| COc1cccc(-n2c(-c3sc(Nc4ccccc4)nc3C)nc3ccccc3c2=O)c1 | > 275 |
| NC(=O)c1cc(Oc2ccc(Cl)c(Cl)c2)cnc1O | 246 to 249 |
| O=[N+]([O-])c1cccc(N2CCOCC2)c1 | 87 to 90 |
| COc1ccc(C2=N[C@H](c3ccccc3)CO2)cc1C#CCN(O)C(N)=O | 190 to 192 |
| CC(Cl)CCC(=O)Nc1c(C#N)cnn1-c1ccc(Cl)c(Cl)c1Cl (stereo not given) | 126 to 127 |

| SMILES | melting point [°C] |
| --- | --- |
| CCCCCCOC(=O)CC[C@@H](NC(=O)[C@@H](NC(=O)OC(C)(C)C)C(C)C)C(N)=O | 94 to 95 |
| CC1(C)CC(=O)C2=C(C1)NC(c1cccnc1)=NC2c1ccc(F)cc1Cl (stereo not given) | 186 to 187 |
| COC(=O)C=C1CCCCC1c1cc(OC)cc(OC)c1 (stereo not given) | 80 to 81 |
| Cc1cc(C=O)ccc1C(=O)NCC(F)(F)F | 99 to 104 |
| COc1cc(C(O)CN2CCC(Cc3ccccc3)CC2)on1 (stereo not given) | 134 to 137 |
| CC1(C)CC(=NNC(=N)NN=C2CC(C)(C)NC(C)(C)C2)CC(C)(C)N1 | 163 to 167 |
| Nc1nc(-c2cc(Cl)ccc2Cl)nc(N2CC=CC2)n1 | 205 to 206 |
| CC(O)c1nc2c(C(F)(F)F)cccc2c(O)c1C(=O)Nc1nccs1 (stereo not given) | 205 |
| CC(C)(C)OC(=O)c1sc(Nc2ccc(Cl)cc2)c2c1CCc1cnoc1-2 | 197 to 198 |
| CNC(=O)C1(CCC#N)c2ccccc2-c2ccccc21 | 185 to 187 |
| CC(C)N1C(=O)C(=O)NC1=NC(=NC(=O)OC(C)(C)C)Nc1ccc(Cl)c(Cl)c1 | 226 |
| CCOC(=O)Cc1nc2ccccc2n1C | 66 to 67 |
| COc1cc(C(C)=O)ccc1OCCCN1CCN(c2n[nH]c3cc(F)ccc23)CC1 | 135 to 137 |
| CCOC(=O)c1sc(SC)c2c1CCc1sc(C)nc1-2 | 143 to 144 |
| CC(=O)C1=NN(c2ccc(C(=O)O)c(Cl)c2)C(=O)C1 | > 250 |
| COc1cc(C)nc2c(O)cccc12 | 110 to 112 |
| Oc1ncc(-c2ccccc2Cl)cn1 | 232 to 233 |
| Cn1ncnc1COc1nc2c(-c3ccccc3)nncn2c1-c1ccccc1 | 179 |
| OC(CCn1cccn1)c1ccc(OCc2ccccc2)cc1 (stereo not given) | 80 to 85 |
| C[C@@H](C(N)=O)c1ccc(NS(=O)(=O)Cc2ccccc2)cc1 | 68 to 70 |
| O=C(O)CCc1cc2cc(Cl)ccc2n1S(=O)(=O)c1cccc(C(F)(F)F)c1 | 203 to 206 |
| Cc1nc(-c2ccc(Cl)cc2)c2nc(-c3ccccc3)cc-2[nH]1 | 281 to 283 |
| O=C(O)COc1cccc(CCCOC(c2ccccc2)c2ccccc2)c1 | 110 to 112 |
| COc1cc(C(=O)O)c(N)cc1C | 193 to 196 |
